From ChEMBL document CHEMBL1201862, “PubChem BioAssay data set” (2004) come the findings set out here.

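Cells were grown in 96-well plates and exposed to each compound for 48 hours at five concentrations; endpoints were interpolated linearly between bracketing concentrations, or set to the highest concentration if not reached. GI50: concentration for 50% inhibition of growth.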 The source made the active and inactive calls. Cut-off read from the data, not from the text of the source: active = GI50 up to about 1.1 µM and inactive = higher.

Some test systems named below: A498; CCRF-CEM; DU-145; Hs-578T; K562; KM12; MDA-MB-435; MDA-N; NCI-H460; PC-3; RPMI-8226; RXF 393; SF-268; SK-MEL-5; SK-OV-3; SW-620; TK-10; M14; SK-MEL-2.
Holding throughout (assay): NCI-60 cell line screen, 48 h

Regarding `CCOC(=O)c1nc2ccccc2nc1NCc1cc(OC)c(OC)c(OC)c1`, the GI50 in the assay with A498 was 23.9 µM (inactive); in the assay on CCRF-CEM it was 39.9 µM (inactive); with DU-145, > 100 µM (inactive); in the assay on Hs-578T, 42.9 µM (inactive); in the assay on K562, 27.8 µM (inactive); with KM12, 34.4 µM (inactive). The GI50 in the assay on MDA-MB-435 is 20.3 µM (inactive); in the assay with MDA-N it was 14.8 µM (inactive); in the assay on NCI-H460, 28.8 µM (inactive); in the assay on PC-3 it was 25.2 µM (inactive); in the assay on RPMI-8226 it was 25.2 µM (inactive); in the assay with RXF 393 it was 14.9 µM (inactive). Besides, the GI50 is > 100 µM (inactive) in the assay on SF-268; 26.9 µM (inactive) with SK-MEL-5; 80.5 µM (inactive) in the assay on SK-OV-3; 42.2 µM (inactive) with SW-620; > 100 µM (inactive) in the assay with TK-10.
As to `Cc1cccc(NC(=S)Nc2ccccc2Cl)n1`, the GI50 in the assay with A498 was 24.9 µM (inactive); in the assay with CCRF-CEM it was > 100 µM (inactive); in the assay on DU-145, > 100 µM (inactive); in the assay with Hs-578T, 38.4 µM (inactive); in the assay with K562 it was > 100 µM (inactive); in the assay with KM12, 25.8 µM (inactive). Besides, the GI50 in the assay on M14 is > 100 µM (inactive); in the assay with MDA-MB-435, > 100 µM (inactive); with MDA-N it was > 100 µM (inactive); with NCI-H460, 59.3 µM (inactive); in the assay with PC-3, > 100 µM (inactive); with RPMI-8226, > 100 µM (inactive). Moreover, the GI50 was 20.7 µM (inactive) in the assay on RXF 393; 28.7 µM (inactive) with SF-268; > 100 µM (inactive) in the assay on SK-MEL-2; 27.9 µM (inactive) with SK-MEL-5; 25.8 µM (inactive) with SK-OV-3; > 100 µM (inactive) in the assay on SW-620. Besides, the GI50 in the assay on TK-10 was 34.8 µM (inactive).
Turning to `COC(=O)[C@@H]1C[C@@]23CCCN4CC[C@@]5(c6cccc(OC)c6N(C=O)[C@]15CC2)[C@@H]43`, the GI50 in the assay on A498, in the assay on CCRF-CEM, in the assay on DU-145, in the assay with Hs-578T, in the assay with KM12 and in the assay with M14 was > 100 µM (inactive) in each case. The GI50 in the assay with MDA-MB-435, in the assay on MDA-N, in the assay with NCI-H460, in the assay on PC-3, in the assay on RPMI-8226 and with RXF 393 was > 100 µM (inactive) throughout. Moreover, the GI50 in the assay on SF-268, in the assay on SK-MEL-2, in the assay on SK-MEL-5, in the assay with SK-OV-3, with SW-620 and with TK-10 was > 100 µM (inactive) in each case.
For the molecule `CN(C)c1ccc(/N=N/c2ccccn2)cc1`, the GI50 is 22.1 µM (inactive) with A498; 4.17 µM (inactive) in the assay with CCRF-CEM; 48.6 µM (inactive) in the assay with DU-145; > 100 µM (inactive) with Hs-578T; 4.61 µM (inactive) with K562; 43.1 µM (inactive) in the assay on KM12. The GI50 with M14 was 9.82 µM (inactive); in the assay on MDA-MB-435, 23.4 µM (inactive); in the assay with MDA-N, 33.7 µM (inactive); in the assay on NCI-H460, 28.8 µM (inactive); in the assay with PC-3 it was 3.97 µM (inactive); with RPMI-8226 it was 11.3 µM (inactive). Further, the GI50 in the assay with RXF 393 was > 100 µM (inactive); with SF-268, 51.2 µM (inactive); with SK-MEL-2, 55.1 µM (inactive); with SK-MEL-5 it was 15.4 µM (inactive); with SK-OV-3, 38.7 µM (inactive); with SW-620, 17.5 µM (inactive). In addition, the GI50 with TK-10 is 35.7 µM (inactive).
Take `CC1CC(=O)N(N(C)C)C(C#N)(C#N)C1(C#N)C#N` (configuration not stated): the GI50 was 17.8 µM (inactive) in the assay with A498; 0.638 µM (active) in the assay on CCRF-CEM; 18.2 µM (inactive) in the assay on DU-145; 23.2 µM (inactive) in the assay on Hs-578T; 2.81 µM (inactive) with K562; > 44.1 µM (inactive) with KM12. The GI50 in the assay on M14 was 15.8 µM (inactive); in the assay on MDA-MB-435, 17 µM (inactive); in the assay with MDA-N it was 18.1 µM (inactive); in the assay with PC-3 it was 18.4 µM (inactive); in the assay on RPMI-8226, 4.14 µM (inactive); with RXF 393, 10.6 µM (inactive). For the same molecule, the GI50 in the assay on SF-268 is 35.8 µM (inactive); in the assay with SK-MEL-2 it was 25.5 µM (inactive); in the assay on SK-MEL-5, 21.9 µM (inactive); with SK-OV-3 it was 29.5 µM (inactive); in the assay on SW-620 it was 5.12 µM (inactive); with TK-10, 16 µM (inactive).
On to `CCCCN1C(=O)CC2[C@@H]3CCc4cc(OC(C)=O)ccc4C3CC[C@]2(C)C1=O` (some centres not stated), for which the GI50 with A498, in the assay on CCRF-CEM, in the assay with DU-145, in the assay on Hs-578T, in the assay on K562 and in the assay on KM12 was > 10 µM (inactive) in each case. For the same molecule, the GI50 with M14, in the assay with MDA-MB-435, with MDA-N, in the assay with NCI-H460, with PC-3 and in the assay on RPMI-8226 was > 10 µM (inactive) each time. For the same molecule, the GI50 with RXF 393, in the assay on SF-268, in the assay with SK-MEL-2, with SK-MEL-5, in the assay with SK-OV-3 and with SW-620 was > 10 µM (inactive) in each case. For the same molecule, the GI50 in the assay with TK-10 is > 10 µM (inactive).
Turning to `CN(C)CCCN1C(=S)N(CCCN(C)C)c2c3ccccc3nc3c([N+](=O)[O-])ccc1c23`, the GI50 was 7.71 µM (inactive) in the assay with A498; 18.8 µM (inactive) in the assay on CCRF-CEM; 6.44 µM (inactive) with DU-145; 6.27 µM (inactive) in the assay with Hs-578T; 4.3 µM (inactive) in the assay with K562; 3.3 µM (inactive) in the assay on KM12. Besides, the GI50 in the assay on M14 was 6.27 µM (inactive); in the assay with MDA-MB-435 it was 5.47 µM (inactive); in the assay on MDA-N it was 7.46 µM (inactive); in the assay on NCI-H460, 3.46 µM (inactive); in the assay on PC-3, 5.83 µM (inactive); in the assay on RPMI-8226, 6.81 µM (inactive). For the same molecule, the GI50 is 5.08 µM (inactive) with RXF 393; 4.21 µM (inactive) with SF-268; 12.5 µM (inactive) in the assay with SK-MEL-2; 4.55 µM (inactive) in the assay with SK-MEL-5; 15.5 µM (inactive) in the assay with SK-OV-3; 3.05 µM (inactive) in the assay on SW-620. Also, the GI50 in the assay with TK-10 was 10 µM (inactive).
On to `O=C1c2cc3c(cc2CC1Br)CCC3` (configuration not stated), for which the GI50 in the assay on A498 was 18.1 µM (inactive); in the assay with CCRF-CEM, 0.405 µM (active); in the assay on DU-145 it was 16 µM (inactive); in the assay on Hs-578T, 4.06 µM (inactive); with K562, 1.39 µM (inactive); in the assay with KM12, 7 µM (inactive). Moreover, the GI50 with M14 was 1.45 µM (inactive); in the assay on MDA-MB-435, 1.99 µM (inactive); with MDA-N it was 1.82 µM (inactive); in the assay on NCI-H460, 12.1 µM (inactive); in the assay on PC-3 it was 3.28 µM (inactive); in the assay with RPMI-8226, 1.82 µM (inactive). Moreover, the GI50 with RXF 393 was 1.83 µM (inactive); in the assay on SF-268, 4.41 µM (inactive); with SK-MEL-2 it was 1.98 µM (inactive); in the assay on SK-MEL-5, 1.18 µM (inactive); in the assay on SK-OV-3, 7.73 µM (inactive); in the assay with SW-620 it was 1.42 µM (inactive). Also, the GI50 in the assay with TK-10 is 2.75 µM (inactive).
Regarding `COc1cc2nc3n(c(=O)c2cc1OC)-c1ccc([N+](=O)[O-])cc1C3=O`, the GI50 in the assay on A498 was 17.5 µM (inactive); with DU-145, 34.6 µM (inactive); in the assay with Hs-578T it was > 100 µM (inactive); with K562, 31.5 µM (inactive); with KM12, 80.2 µM (inactive); in the assay with M14, 52.1 µM (inactive). Further, the GI50 in the assay with MDA-MB-435 is 19.4 µM (inactive); in the assay on MDA-N, 30.5 µM (inactive); in the assay with NCI-H460, 68.4 µM (inactive); with PC-3, 41.5 µM (inactive); in the assay with RPMI-8226, 28.7 µM (inactive); with RXF 393, 20.3 µM (inactive). Further, the GI50 in the assay with SF-268 was > 100 µM (inactive); with SK-MEL-2, > 100 µM (inactive); in the assay with SK-MEL-5, 50.8 µM (inactive); with SK-OV-3 it was > 100 µM (inactive); with SW-620 it was 11.3 µM (inactive); with TK-10, 61.7 µM (inactive).
Consider `CC(=O)OCC1=C(C(=O)O)N2C(=O)C(NC(=O)CSc3ccncc3)C2SC1` (configuration not stated), for which the GI50 in the assay with A498, in the assay with CCRF-CEM, in the assay on DU-145, in the assay with Hs-578T, with K562 and in the assay with KM12 was > 100 µM (inactive) throughout. Also, the GI50 in the assay with M14, in the assay on MDA-MB-435, in the assay on MDA-N, in the assay with NCI-H460, in the assay on PC-3 and with RPMI-8226 was > 100 µM (inactive) each time. Moreover, the GI50 with RXF 393, with SF-268, in the assay with SK-MEL-2, in the assay with SK-MEL-5, in the assay on SK-OV-3 and with SW-620 was > 100 µM (inactive) each time.
Turning to `N[C@H](C(=O)O)[C@@H]1CC(Cl)=NO1` [ACIVICIN], the GI50 is 6.84 µM (inactive) in the assay with A498; 1.19 µM (inactive) with CCRF-CEM; 2.48 µM (inactive) in the assay on DU-145; 3.62 µM (inactive) in the assay on Hs-578T; 2.46 µM (inactive) in the assay on K562; 2.9 µM (inactive) in the assay on M14. The GI50 in the assay on MDA-MB-435 is 3.9 µM (inactive); in the assay on MDA-N, 4.06 µM (inactive); in the assay on NCI-H460, 0.452 µM (active); with PC-3 it was 1.48 µM (inactive); with RPMI-8226, 3.3 µM (inactive); in the assay with RXF 393 it was 7.62 µM (inactive). The GI50 in the assay with SF-268 is 1.53 µM (inactive); with SK-MEL-2, 4.61 µM (inactive); with SK-MEL-5, 1.99 µM (inactive); in the assay with SK-OV-3 it was 12.6 µM (inactive); in the assay with SW-620, 1.07 µM (active); in the assay with TK-10, 2.7 µM (inactive).
